Data: US12070594B2, “Biomedical electrode with anti-microbial properties” (Compass Health Brands Corp., priority 2018, dated 2024)

Experiments:
Assay type in all cases: cell-based
S. aureus ATCC 25923 = assay: Antibiotic susceptibility, reference microorganism
S. aureus ATCC 33592 = assay: Antibiotic Susceptibility of the Test Microorganisms
P. aeruginosa ATCC 27853 = assay: Antibiotic susceptibility, reference microorganism
E. cloacae ATCC BAA-2468 = assay: Antibiotic Susceptibility of the Test Microorganisms
E. coli ATCC 25922 = assay: Antibiotic susceptibility, reference microorganism
[1] = test system: A. baumannii ATCC BAA-1605; assay: Antibiotic Susceptibility of the Test Microorganisms
E. faecalis ATCC 51575 = assay: as above
[2] = susceptibility ≥21 mm, resistance ≤17 mm (CLSI M100)

Row | SMILES | Reference Microorganism Diameter (S. aureus ATCC 25923) | Test Microorganism Demonstrates Resistance? (S. aureus ATCC 33592) | Test Microorganism Diameter (S. aureus ATCC 33592; susceptibility ≥13 mm, resistance ≤10 mm (CLSI M100)) | Reference Microorganism Diameter (P. aeruginosa ATCC 27853) | Test Microorganism Demonstrates Resistance? (E. cloacae ATCC BAA-2468) | Test Microorganism Diameter (E. cloacae ATCC BAA-2468; [2]) | Reference Microorganism Diameter (E. coli ATCC 25922) | Test Microorganism Demonstrates Resistance? [1] | Test Microorganism Diameter [1, 2] | Test Microorganism Demonstrates Resistance? (E. faecalis ATCC 51575) | Test Microorganism Diameter (E. faecalis ATCC 51575; susceptibility ≥17 mm, resistance ≤14 mm (CLSI M100))
1 | Cc1onc(-c2ccccc2)c1C(=O)N[C@@H]1C(=O)N2[C@@H]1SC(C)(C)[C@@H]2C(=O)O [Oxocillin] | 51.9 mm | Yes | 9.2 mm | – | – | – | – | – | – | – | –
2 | CCN1CCN(C(=O)N[C@@H](C(=O)N[C@@H]2C(=O)N3[C@@H]2SC(C)(C)[C@@H]3C(=O)O)c2ccccc2)C(=O)C1=O [Piperacillin] | – | – | – | 26.2 mm | Yes | 6.5 mm | 25.3 mm | Yes | 6.5 mm | – | –
3 | CN[C@H](CC(C)C)C(=O)N[C@H]1C(=O)N[C@@H](CC(N)=O)C(=O)N[C@H]2C(=O)N[C@H]3C(=O)N[C@H](C(=O)N[C@H](C(=O)O)c4cc(O)cc(O)c4-c4cc3ccc4O)[C@H](O)c3ccc(c(Cl)c3)Oc3cc2cc(c3O[C@@H]2O[C@H](CO)[C@@H](O)[C@H](O)[C@H]2O[C@H]2C[C@](C)(N)[C@H](O)[C@H](C)O2)Oc2ccc(cc2Cl)[C@H]1O [Vancomycin] | 21.2 mm | – | – | – | – | – | – | – | – | Yes | 11.3 mm
